Measurements published in publication PMC11198769, “Enhancement of transcription efficiency by TAR-Tat system increases the functional expression of human olfactory receptors” (PLOS ONE, 2024).
Read-outs that look alike come from different tables or passages of the source.

Tests used:
Assay in all cases: hOR assay (GloSensor cAMP luciferase), dose-response
Format in all cases: cell-based
[1] = molecular target: T1, OR56B1 (Homo sapiens, UniProt Q8NGI3); details: OR56B1, with or without the TAR-Tat system
T1 construct: Lucy tag (N); expressed in transfected cells; host or cells: Flp-In T-REx-293 cells stably expressing RTP1S, Gαolf and Ric8-b
T1 sequence (Q8NGI3 1-324): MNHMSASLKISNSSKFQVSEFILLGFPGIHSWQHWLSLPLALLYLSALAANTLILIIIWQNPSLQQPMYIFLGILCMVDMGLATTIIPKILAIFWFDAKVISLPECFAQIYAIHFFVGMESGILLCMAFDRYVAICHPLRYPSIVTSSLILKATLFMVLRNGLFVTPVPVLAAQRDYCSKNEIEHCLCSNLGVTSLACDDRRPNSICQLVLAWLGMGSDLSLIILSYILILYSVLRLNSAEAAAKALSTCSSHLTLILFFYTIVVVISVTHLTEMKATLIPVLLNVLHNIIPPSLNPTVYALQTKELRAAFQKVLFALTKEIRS
Protocol: (§1) Flp-In T-REx-293 cells stably expressing accessory proteins (RTP1S, Gαolf, and Ric8-b) were established using the Flp-In T-REx system. Accessory proteins-expressing cells were maintained in high-glucose Dulbecco’s modified Eagle medium (Sigma-Aldrich) containing 10% fetal bovine serum (Biowest) and 1% antibiotic–antimycotic (Nacalai tesque) at 37°C with 5% CO2.
(§2) The GloSensor™ Technology (Promega) was used for the luciferase assay of the hOR response. As the negative control, cells that were transfected by the pBApo-CMV neo vector and pHEK293 Ultra Expression Vector I were used as mock cells. hOR/pHEK and hOR/pBApo (50 ng/well) were transfected into the accessory proteins-expressing cell line (40000 cells/well) using Lipofectamine 2000 (Thermo Fisher Scientific) (400 nL/well) along with pGlosensor™-22F cAMP biosensor plasmid (Promega) (50 ng/well) in a 96-well plate. At 28 h posttransfection, the cells were washed with an assay buffer (140 mM NaCl, 10 mM HEPES, 5 mM KCl, 1 mM CaCl2・2H2O, 10 mM D-glucose, pH 7.5) and replaced with the assay buffer (50 μL/well) containing 2% GloSensor cAMP substrate and preincubated for 1 h at 25°C. Then, the assay buffer was added (130 μL/well). After 10 min of equilibration, the luminescence was measured (L0). Odorants diluted in 10% DMSO/assay buffer were treated (20 μL/well). After 9 min, the luminescence was measured (L9min). First, all the L9min values were subtracted by the L0 value (ΔL) and divided by the L0 value (ΔL/L0). The concentration range of the odorants was different for each odorant, but the minimum was 0.01 μM and the maximum was 3 mM. For all hORs, luciferase assays with hOR/pBApo and hOR/pHEK were conducted in the same 96-well plate each time, and luminescence was normalized to a maximum value of 100. Dose–response curve images were graphed using the Graph Pad Prism 9 software (Graph Pad Software).

[2] = molecular target: T2, OR52N4 (Homo sapiens, UniProt Q8NGI2); details: OR52N4, with or without the TAR-Tat system
T2 construct: Lucy tag (N); expressed in transfected cells; host or cells: Flp-In T-REx-293 cells stably expressing RTP1S, Gαolf and Ric8-b
T2 sequence (Q8NGI2 1-321): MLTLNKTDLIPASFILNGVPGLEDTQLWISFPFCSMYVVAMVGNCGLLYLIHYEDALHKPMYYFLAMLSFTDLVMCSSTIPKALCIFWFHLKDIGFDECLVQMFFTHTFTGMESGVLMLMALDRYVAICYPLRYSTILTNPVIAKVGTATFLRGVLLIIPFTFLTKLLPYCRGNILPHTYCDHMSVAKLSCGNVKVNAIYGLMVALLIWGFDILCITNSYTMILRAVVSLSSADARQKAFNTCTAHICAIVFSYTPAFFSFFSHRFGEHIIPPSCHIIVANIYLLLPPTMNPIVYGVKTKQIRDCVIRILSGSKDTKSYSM
Protocol: as §1, §2

[3] = molecular target: T3, OR8B4 (Homo sapiens, UniProt Q96RC9); details: OR8B4, with or without the TAR-Tat system
T3 construct: Lucy tag (N); FLAG (N); Rho tag (N); expressed in transfected cells; host or cells: Flp-In T-REx-293 cells stably expressing RTP1S, Gαolf and Ric8-b
T3 sequence (Q96RC9 1-309): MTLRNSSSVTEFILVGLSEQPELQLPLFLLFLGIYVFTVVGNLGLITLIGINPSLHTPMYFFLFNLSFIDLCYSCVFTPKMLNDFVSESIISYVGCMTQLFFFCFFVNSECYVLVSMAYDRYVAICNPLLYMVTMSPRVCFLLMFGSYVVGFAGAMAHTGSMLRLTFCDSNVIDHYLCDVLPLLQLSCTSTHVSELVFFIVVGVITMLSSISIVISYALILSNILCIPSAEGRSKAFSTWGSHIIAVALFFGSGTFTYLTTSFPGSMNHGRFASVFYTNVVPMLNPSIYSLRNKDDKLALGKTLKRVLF
Protocol: as §1, §2

[4] = molecular target: T4, OR8B3 (Homo sapiens, UniProt Q8NGG8); details: OR8B3, with or without the TAR-Tat system
T4 construct: Lucy tag (N); FLAG (N); Rho tag (N); expressed in transfected cells; host or cells: Flp-In T-REx-293 cells stably expressing RTP1S, Gαolf and Ric8-b
T4 sequence (Q8NGG8 1-313): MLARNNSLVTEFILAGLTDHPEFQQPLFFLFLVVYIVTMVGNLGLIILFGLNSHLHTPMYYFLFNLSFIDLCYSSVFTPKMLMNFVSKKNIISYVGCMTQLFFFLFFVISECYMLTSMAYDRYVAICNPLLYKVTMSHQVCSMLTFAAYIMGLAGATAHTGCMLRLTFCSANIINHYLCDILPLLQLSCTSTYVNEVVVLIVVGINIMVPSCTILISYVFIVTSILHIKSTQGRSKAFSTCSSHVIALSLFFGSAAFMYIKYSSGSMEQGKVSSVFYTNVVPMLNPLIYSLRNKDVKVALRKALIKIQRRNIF
Protocol: as §1, §2

[5] = molecular target: T5, OR5P3 (Homo sapiens, UniProt Q8WZ94); details: for EC50: read-out: EC50 of n-hexanal concentration-response relationship
T5 construct: Lucy tag (N); FLAG (N); Rho tag (N); expressed in transfected cells; host or cells: Flp-In T-REx-293 cells stably expressing RTP1S, Gαolf and Ric8-b
T5 sequence (Q8WZ94 1-311): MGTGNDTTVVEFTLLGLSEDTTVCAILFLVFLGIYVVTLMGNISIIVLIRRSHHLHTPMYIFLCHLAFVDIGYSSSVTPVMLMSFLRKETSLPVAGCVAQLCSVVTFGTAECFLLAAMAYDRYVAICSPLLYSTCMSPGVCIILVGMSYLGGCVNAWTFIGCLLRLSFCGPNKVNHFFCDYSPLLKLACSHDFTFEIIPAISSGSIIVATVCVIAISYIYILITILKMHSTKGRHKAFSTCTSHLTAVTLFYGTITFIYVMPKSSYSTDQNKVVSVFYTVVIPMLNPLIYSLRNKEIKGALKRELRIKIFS
Protocol: as §1, §2

concentration-dependent response to n-hexanal [1]: no concentration-dependent response
concentration-dependent response to n-hexanal [2]: no concentration-dependent response
concentration-dependent response to n-hexanal [3]: no concentration-dependent response
concentration-dependent response to n-hexanal [4]: no concentration-dependent response
EC50 ([5]; OR5P3/pBApo (without TAR-Tat system)): 191 µM
EC50 ([5]; OR5P3/pHEK (with TAR-Tat system)): 672 µM
increase of maximum value of dose-response curve with the TAR-Tat system ([5]; OR5P3/pHEK versus OR5P3/pBApo): 4.1 fold
Compound: CCCCCC=O [n-hexanal]
concentration-dependent response to n-hexanal ([5]; OR5P3, with and without the TAR-Tat system): Concentration-dependent responses were observed
